# Source: US20110165232A1, “Use of Opioid Antagonists for the Preparation of a Medicament in the Treatment of Retinal Degenerative Diseases” (AK KIMYA ITHALAT-IHRACAT VE SANAYII ANONIM SIRKETI, priority 2008, published 2011)
# Assays:
# [1] = tested on: age related macular degeneration; assay: Case reports: low dose naltrexone regimen in patients with age related macular degeneration; type: in vivo, human; details: elderly person with age related macular degeneration, 4.5 mg per day at bedtime
# Excerpt: An […] has had age related macular degeneration for the last 11 years of […] life, experiencing progressive blurring in the center of […] vision. The degeneration led to loss of central vision […] from many daily activities. It […] very difficult to lead an independent life.
# An […] has had age related macular degeneration for the last 10 years […]. […] experienced a loss of central vision […] to differentiate the colors of the surrounding objects and letters in the newspapers. […] […] began to differentiate the colors of the objects shown to […]; […] started to differentiate the big printed letters in the newspapers.
# beta-endorphins = details: normal volunteers, LDN at bedtime, in the following days; cited from earlier work
# human tumors = details: laboratory studies, low dose naltrexone methodology; cited from earlier work
# Met-enkephalin = details: animal research, Ref 7; cited from earlier work
smiles,measurement,setting,value
O=C1CC[C@@]2(O)[C@H]3Cc4ccc(O)c5c4[C@@]2(CCN3CC2CC2)[C@H]1O5 [naltrexone],quality of vision,[1],the quality of their vision started to improve
same,time after initiation of therapy until vision began to improve,[1],Approximately 50 days
same,quality of vision,[1]; listed as low dose naltrexone,improvement in the quality of their vision
same,time after initiation of therapy until vision began to improve,[1]; listed as low dose naltrexone,50 to 60 days
same,levels of beta-endorphins in blood,beta-endorphins,higher levels of beta-endorphins in their blood
same,inhibition of human tumors,human tumors,inhibition of different human tumors
same,Met-enkephalin levels,Met-enkephalin,marked increase in Met-enkephalin levels
